For seven molecules, Bliss excess results are on record in the supplement of paper PMC11061612.

Assay in all cases: Bliss excess, mean over the matrix (fraction); higher = more synergy
One test deals with AM-38 (Glioblastoma). The procedure, abridged: (§1)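 Bliss excess equals the observed combination effect minus the expected value EA + EB − EA·EB, where EA and EB are the effects of each agent alone. Combination Emax is the second-highest inhibition within the matrix. Inhibition was scaled from CellTiter-Glo 2.0 luminescence, with 0 set by vehicle wells and 1 by blank wells, after 72 hours of two-drug dosing of cells plated in 1536-well plates.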

Test [1] has as its system BHT-101 (Thyroid Gland Carcinoma). The procedure, abridged: as §1
For test [2], the system named is COR-L88 (Small Cell Lung Carcinoma). The procedure, abridged:
as §1

Test [3] deals with DBTRG-05MG (Glioblastoma). The procedure, abridged:
as §1

In test [4] the test system is HT-1080 (Other Solid Carcinomas). The procedure, abridged:
as §1

The test system of test [5] is IA-LM (Non-Small Cell Lung Carcinoma). The procedure, abridged:
as §1

The next test concerns IST-MEL1 (Melanoma). The procedure, abridged: as §1
For test [6], the system named is MOLT-13 (T-Lymphoblastic Leukemia). The procedure, abridged:
as §1

Test [7] relates to MONO-MAC-6 (Acute Myeloid Leukemia). The gist of the method: as §1
Test [8] relates to MS-1 (Small Cell Lung Carcinoma). The gist of the method:
as §1

Test [9] deals with NCI-H1341 (Small Cell Lung Carcinoma). The procedure, abridged: as §1
The subject of the next test is NCI-H226 (Mesothelioma). The gist of the method: as §1
In test [10] the test system is NMC-G1 (Low Grade Glioma). The gist of the method: as §1
Test [11] deals with Raji (Burkitt's Lymphoma). The procedure, abridged: as §1
Test [12] concerns SAT (Head and Neck Carcinoma). The procedure, abridged:
as §1

A further test relates to SK-N-SH (Neuroblastoma). The procedure, abridged:
as §1

For test [13], the system named is SNU-C2B (Colorectal Carcinoma). The procedure, abridged:
as §1

Test [14] deals with SiHa (Cervical Carcinoma). The gist of the method:
as §1

Test [15] has as its system T84 (Colorectal Carcinoma). The gist of the method:
as §1

Test [16] relates to TUR (Acute Myeloid Leukemia). The procedure, abridged: as §1

Consider `Cc1c2c(nn1C)CSCc1cc(n(C)n1)CSc1cc(c3ccccc3c1)OCCCc1c(C(=O)O)n(C)c3c-2c(Cl)ccc13` [AZD5991] + C=CCn1c(=O)c2cnc(Nc3ccc(N4CCN(C)CC4)cc3)nc2n1-c1cccc(C(C)(C)O)n1 [AZD1775] (first compound max 1 µM, partner max 1 µM), for which the Bliss excess with AM-38 (Glioblastoma) is -0.0015; in test [1] it was 0.0811; in test [2], -0.0463; in test [3] it was 0.005; in [4], 0.0345; in test [5], -0.0011. The Bliss excess in the test on IST-MEL1 (Melanoma) was -0.0318; in [6], -0.0071; in test [7], -0.0256; in [8] it was -0.0462; in test [9], 0.0185; in the test on NCI-H226 (Mesothelioma), 0.018. Besides, the Bliss excess in test [10] is -0.0012; in test [11], -0.013; in test [12], 0.0173; in the test on SK-N-SH (Neuroblastoma), -0.0163; in test [13], 0.0194; in [14], -0.0646. Besides, the Bliss excess was -0.0287 in test [15] and 0.0189 in test [16].

Turning to `Cc1c2c(nn1C)CSCc1cc(n(C)n1)CSc1cc(c3ccccc3c1)OCCCc1c(C(=O)O)n(C)c3c-2c(Cl)ccc13` [AZD5991] + CC1(C)CCC(CN2CCN(c3ccc(C(=O)NS(=O)(=O)c4ccc(NCC5CCOCC5)c([N+](=O)[O-])c4)c(Oc4cnc5[nH]ccc5c4)c3)CC2)=C(c2ccc(Cl)cc2)C1 [Venetoclax] (first compound max 1 µM, 7x7, partner max 1 µM), the Bliss excess was -0.0091 in the test with AM-38 (Glioblastoma); 0.0146 in test [1]; 0.136 in test [2]; -0.0233 in test [3]; -0.0353 in test [4]; -0.007 in [5]. In addition, the Bliss excess with IST-MEL1 (Melanoma) was 0.009; in [6], 0.0266; in test [7], 0.136; in test [8], 0.0089; in test [9] it was 0.132; in the test with NCI-H226 (Mesothelioma), -0.0582. In addition, the Bliss excess was -0.03 in test [10]; 0.0287 in [11]; 0.0101 in test [12]; 0.151 in the test with SK-N-SH (Neuroblastoma); -0.0289 in [13]; -0.129 in test [14]. The Bliss excess in [15] is -0.0369; in test [16] it was 0.138.

For the molecule `Cc1c2c(nn1C)CSCc1cc(n(C)n1)CSc1cc(c3ccccc3c1)OCCCc1c(C(=O)O)n(C)c3c-2c(Cl)ccc13` [AZD5991] + CCN(CCO)CCCOc1ccc2c(Nc3cc(CC(=O)Nc4cccc(F)c4)[nH]n3)ncnc2c1 [AZD2811] (first compound max 1 µM, 7x7, partner max 1 µM), the Bliss excess with AM-38 (Glioblastoma) was 0.0138; in test [1], -0.0507; in test [2], 0.0453; in test [3] it was 0.019; in [4], 0.0096; in test [5] it was 0.0059. Further, the Bliss excess in the test with IST-MEL1 (Melanoma) worked out at 0.0931; in [6] it was 0.0028; in test [7] it was 0.0258; in test [8], 0.0123; in test [9], 0.0493; with NCI-H226 (Mesothelioma), 0.0097. The Bliss excess is 0.0152 in test [10]; 0.0766 in test [11]; 0.101 in [12]; -0.068 with SK-N-SH (Neuroblastoma); 0.0057 in [13]; 0.0009 in test [14]. Further, the Bliss excess in test [15] came out at 0.0441; in test [16], 0.121.

With `Cc1c2c(nn1C)CSCc1cc(n(C)n1)CSc1cc(c3ccccc3c1)OCCCc1c(C(=O)O)n(C)c3c-2c(Cl)ccc13` [AZD5991] + CN(C)CCCOc1ccc(-c2ccc3ncc4c(c3c2)n(C2CCOCC2)c(=O)n4C)cn1 [AZD0156] (first compound max 1 µM, 7x7, partner max 1 µM), the Bliss excess was 0.0291 with AM-38 (Glioblastoma); 0.0638 in test [1]; -0.0129 in test [2]; 0.0252 in test [3]; -0.0148 in test [4]; -0.0333 in [5]. Further, the Bliss excess in the test on IST-MEL1 (Melanoma) was -0.0282; in test [6] it was -0.0198; in [7] it was -0.0433; in test [8] it was -0.0347; in test [9], 0.0072; in the test on NCI-H226 (Mesothelioma), 0.0125. The Bliss excess was -0.0387 in [10]; -0.0213 in test [11]; -0.0186 in [12]; 0.0204 in the test on SK-N-SH (Neuroblastoma); 0.0051 in test [13]; 0.0341 in test [14]. Besides, the Bliss excess in test [15] was -0.0112; in [16] it was 0.0377.

As to `Cc1c2c(nn1C)CSCc1cc(n(C)n1)CSc1cc(c3ccccc3c1)OCCCc1c(C(=O)O)n(C)c3c-2c(Cl)ccc13` [AZD5991] + C[C@@H]1COCCN1C2=NC(=NC(=C2)C3(CC3)[S@](=N)(=O)C)C4=C5C=CNC5=NC=C4 [AZD6738] (first compound max 1 µM, 7x7, partner max 10 µM), the Bliss excess with AM-38 (Glioblastoma) came out at 0.0312; in [1], 0.0666; in test [2], 0.0555; in test [3], 0.0578; in test [4] it was 0.0041; in test [5] it was 0.0255. In addition, the Bliss excess with IST-MEL1 (Melanoma) is -0.0344; in test [6], 0.0186; in [7], -0.02; in test [8], -0.0205; in test [9], 0.0751; in the test on NCI-H226 (Mesothelioma), 0.0298. Moreover, the Bliss excess in test [10] is 0.0188; in [11], 0.055; in [12], 0.0466; in the test with SK-N-SH (Neuroblastoma), -0.0225; in [13], -0.0199; in [14], 0.0122. In addition, the Bliss excess is -0.0127 in [15] and 0.096 in test [16].

Regarding `Cc1c2c(nn1C)CSCc1cc(n(C)n1)CSc1cc(c3ccccc3c1)OCCCc1c(C(=O)O)n(C)c3c-2c(Cl)ccc13` [AZD5991] + Cc1cc2ncnn2cc1Nc1ncc2c(n1)n(C1CCOCC1)c(=O)n2C [AZD7648] (first compound max 1 µM, 7x7, partner max 10 µM), the Bliss excess in the test with AM-38 (Glioblastoma) was -0.0347; in test [1] it was -0.0308; in test [2] it was -0.0006; in [3] it was -0.0436; in test [4] it was -0.0256; in test [5], -0.0226. For the same molecule, the Bliss excess is -0.0048 in the test on IST-MEL1 (Melanoma); -0.0085 in test [6]; 0.016 in test [7]; -0.0158 in test [8]; 0.0192 in test [9]; -0.061 in the test on NCI-H226 (Mesothelioma). The Bliss excess in test [10] was -0.0606; in test [11], 0.0794; in test [12] it was -0.0599; with SK-N-SH (Neuroblastoma), -0.0211; in [13], -0.012; in [14], -0.0234. Also, the Bliss excess in test [15] was -0.0431; in test [16], -0.0488.

For the molecule `C[C@@H]1COCCN1c1cc(C2([S@](C)(=N)=O)CC2)nc(-c2ccnc3[nH]ccc23)n1` [AZD6738] + O=C(c1cc(Cc2n[nH]c(=O)c3ccccc23)ccc1F)N1CCN(C(=O)C2CC2)CC1 [Olaparib] (first compound max 10 µM, 7x7, partner max 10 µM), the Bliss excess with AM-38 (Glioblastoma) is 0.0226; in [1], 0.016; in [2], -0.12; in [3], 0.0096; in test [4] it was 0.0128; in [5] it was 0.0137. The Bliss excess with IST-MEL1 (Melanoma) was 0.035; in [6], 0.0645; in test [7] it was -0.0438; in test [8], 0.0056; in test [9], -0.0105; in the test on NCI-H226 (Mesothelioma), -0.0156. The Bliss excess is 0.0071 in [10]; -0.0204 in test [11]; 0.0019 in test [12]; -0.0667 in the test with SK-N-SH (Neuroblastoma); 0.0123 in test [13]; 0.0106 in test [14]. Besides, the results for the Bliss excess in test [15] and in test [16] were -0.027 and 0.0244, respectively.
